Several values for one entry are separate records, joined by “and”; a condition that tells them apart may be missing. Equal values may be shown once.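 Exposure lasted 48 hours, with cells grown in 96-well plates and compounds tested at five concentrations. GI50: concentration for 50% inhibition of growth. The concentration for full growth arrest is given as TGI.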 Where a SMILES comes first, the peptide text is derived from it. [ ]: non-standard residue; d: D form. The star is where a group is joined. NMeF = CN[CH](Cc1ccccc1)C(=O)O; NMeV = CN[CH](C(=O)O)C(C)C; Boc = CC(C)(C)OC(=O)*; OBn = c1ccc(CO*)cc1
Tests used:
Assay in all cases: inhibition of tumour cell growth, NCI panel, 48 h
ACHN renal = test system: ACHN renal
HOP-62 NSCLC = test system: HOP-62 NSCLC
K-562 leukemia = test system: K-562 leukemia
KM12 colon = test system: KM12 colon
LOX IMVI melanoma = test system: LOX IMVI melanoma
NCI-H23 lung = test system: NCI-H23 lung
NCI-H460 lung = test system: NCI-H460 lung
OVCAR-5 ovarian = test system: OVCAR-5 ovarian
RPMI-8226 leukemia = test system: RPMI-8226 leukemia
SK-OV-3 ovarian = test system: SK-OV-3 ovarian
SR leukemia = test system: SR leukemia
U251 CNS = test system: U251 CNS
MDA-N = test system: MDA-N

| Structure (SMILES) | TGI (ACHN renal) [µM] | TGI (HOP-62 NSCLC) [µM] | TGI (K-562 leukemia) | TGI (KM12 colon) [µM] | TGI (LOX IMVI melanoma) | TGI (NCI-H23 lung) [µM] | TGI (NCI-H460 lung) [µM] | TGI (OVCAR-5 ovarian) [µM] | TGI (RPMI-8226 leukemia) [µM] | TGI (SK-OV-3 ovarian) [µM] | TGI (SR leukemia) | TGI (U251 CNS) [µM] | TGI (MDA-N) [µM] | GI50 (OVCAR-5 ovarian) [µM] | GI50 (SK-OV-3 ovarian) [µM] | GI50 (ACHN renal) | GI50 (K-562 leukemia) | GI50 (KM12 colon) | GI50 (LOX IMVI melanoma) | GI50 (RPMI-8226 leukemia) |
| --- | --- | --- | --- | --- | --- | --- | --- | --- | --- | --- | --- | --- | --- | --- | --- | --- | --- | --- | --- | --- |
| CC(=O)[O-].CC(=O)[O-].O=C(N/N=C/c1cc(Cl)cc(Cl)c1[OH2+])c1ccncc1.[Mn+2] | 13.8 | 68 | 14.8 µM | 23.8 | 15.2 µM | 21.9 | 15.8 | 8.49 | 8.88 | 51.1 | 4.4 µM | 24.3 | – | – | – | – | – | – | – | – |
| C[N+](C)(C)CC(=O)N/N=C(\Cc1nc2ccc([N+](=O)[O-])cc2[nH]c1=O)C(=O)Nc1nc2ccc([N+](=O)[O-])cc2s1 | > 100 | > 100 | > 100 µM | > 100 | > 100 µM | > 100 | > 100 | > 100 | > 100 | > 100 | > 100 µM | > 100 | – | – | – | – | – | – | – | – |
| CC[C@H](C)[C@@H]([C@@H](CC(=O)N1CCC[C@H]1[C@H](OC)[C@@H](C)C(=O)NCCc1ccccc1)OC)N(C)C(=O)C(NC(=O)[C@H](C(C)C)N(C)C)C(C)C (some centres not stated) | > 10 | 3.02 | > 10 µM | 0.00178 | > 10 µM | > 10 | – | > 10 | – | 3.48 | – | 0.0068 | 0.000164 | 0.000592 | 0.00047 | – | – | – | – | – |
| C/C=C/c1cc2c(cc1O)CC[C@@H]1[C@@H]2CC[C@]2(C)[C@@H](O)CC[C@@H]12 | 15.5 | 16.3 | 15.7 µM | 13.4 | 24.3 µM | 4.62 | 14.3 | 25.4 | > 82.6 | 15.3 | > 19.6 µM | 13 | – | – | – | – | – | – | – | – |
| O=C1C=C(c2ccccc2)OC1C1Sc2ccccc2NC1=O (configuration not stated) | > 62.6 | > 19.8 | > 28.3 µM | > 100 | > 64.6 µM | > 31.5 | > 20.9 | > 100 | 12.5 | > 33.8 | – | > 43.3 | > 100 | – | – | – | – | – | – | – |
| CC(=O)OCC1OC(n2c(C)c(C(C)=O)c(-c3ccco3)c(C#N)c2=S)C(OC(C)=O)C(OC(C)=O)C1OC(C)=O (configuration not stated) | > 100 | > 100 | > 100 µM | > 100 | > 100 µM | > 100 | > 100 | > 100 | – | > 100 | > 100 µM | > 100 | > 100 | – | – | – | – | – | – | – |
| CC(Br)CN1CCOCC1 (configuration not stated) | > 100 | > 100 | > 100 µM | > 100 | > 100 µM | > 100 | > 100 | > 100 | > 100 | > 100 | > 100 µM | > 100 | – | – | – | – | – | – | – | – |
| CCOC(=O)CN1C(=O)NC(C)(c2ccccc2)C1=O (configuration not stated) | > 100 | > 100 | > 100 µM | > 100 | > 100 µM | > 100 | – | > 100 | > 100 | > 100 | – | > 100 | – | – | – | – | – | – | – | – |
| C/C(O)=C(\C=N\C(=S)N=Nc1c(O)[nH]c2ccccc12)C(=O)Nc1ccccc1C | > 100 | > 100 | – | > 100 | > 100 µM | > 100 | > 100 | > 100 | – | > 100 | – | > 100 | > 100 | – | – | – | – | – | – | – |
| CC(C)C(NC(=O)OC(C)(C)C)C(=O)N(C)C(Cc1ccccc1)C(=O)N(C)C(C(=O)OCc1ccccc1)C(C)C (stereo not drawn) (Boc-Val-[NMeF]-[NMeV]-OBn; configuration not given here) | > 100 | > 100 | 95.6 µM and > 100 µM | > 100 | 35.7 µM and > 100 µM | > 100 | > 100 | – | > 100 | > 100 | > 100 µM and 96.2 µM | > 100 | – | – | – | > 100 µM and 41 µM | 12.1 µM and 51.4 µM | 38.2 µM and 82.9 µM | 16.3 µM and 62.9 µM | 10.8 µM and 25.3 µM |
| CCN(CC)C(=O)CCn1cc(F)c(=O)[nH]c1=O | > 100 | > 100 | > 100 µM | > 100 | > 100 µM | > 100 | > 100 | > 100 | > 100 | – | > 100 µM | > 100 | – | – | – | – | – | – | – | – |
| Cc1ccc(Nc2cccc3c2C(=O)c2cccc(Nc4ccc(C)cc4S(=O)(=O)O)c2C3=O)c(S(=O)(=O)O)c1 | > 100 | > 100 | > 100 µM | > 100 | – | – | > 100 | – | > 100 | > 100 | > 100 µM | > 100 | – | – | – | – | – | – | – | – |
| Cc1[nH]c(C)c(CN(C)C)c1CN(C)C | > 100 | > 100 | > 100 µM | > 100 | > 100 µM | > 100 | > 100 | > 100 | > 100 | > 100 | – | > 100 | > 100 | – | – | – | – | – | – | – |
| COc1cc(S(=O)(=O)Nc2ccc(-c3csc(N4C(=O)C(C)SC4c4cccs4)n3)cc2)ccc1Cl (configuration not stated) | > 100 | > 100 | > 100 µM | 23 | 96.7 µM | > 100 | – | > 100 | > 100 | > 100 | > 100 µM | – | – | – | – | – | – | – | – | – |
| Clc1cccc(-c2nc3cccc4c3n2Cc2ncccc2-4)c1 | > 100 | > 100 | > 100 µM | > 100 | – | > 100 | > 100 | > 100 | – | > 100 | > 100 µM | > 100 | > 100 | – | – | – | – | – | – | – |
| CCOC(=O)C1=C(C)N(c2ccc(Cl)cc2)C2(O)C=CC(=O)C3=C(O)c4ccccc4C(=O)C312 (configuration not stated) | 16.4 | 18.9 | 18.1 µM | 20.4 | 14 µM | 25.4 | 18.2 | 30.7 | 4.42 | 30.7 | – | 15.6 | 18.2 | – | – | – | – | – | – | – |
| CCO/C(O)=C(/C(=N)N1CCOCC1)C(=O)NC(C)C | > 100 | > 100 | > 100 µM | > 100 | > 100 µM | > 100 | > 100 | > 100 | > 100 | > 100 | – | > 100 | > 100 | – | – | – | – | – | – | – |

— PubChem BioAssay (NCI)
